The subject of the test is HEK293 cells that overexpress integrin β3. The test is described as follows: Internalization of fluorescein-labeled peptides, confocal microscopy with early endosome immunolabeling. To be noted: 37° C., 15 to 30 minutes. The class given is cell-based. How it is done: 3) Active internalization of drugs or vectorized products: The same cells, placed in contact at 37° C. or 4° C. for 15 to 30 minutes with peptides previously labeled with fluorescein, are observed by confocal microscopy after immunolabeling of the early endosome vesicles (anti-Early Endosome 1A labeling, visualized in red).
If incubation of the peptides is performed at 4° C., only the extracellular label is observed with the peptide obtained according to the invention, confirming that internalization takes place by way of an active process.

Non-standard residues stand in square brackets, D forms with d.

Regarding cyclo(RGDfK) (cyclo(RGD[dF]K)) [cRGD], the “visualization / detection of the peptide on and in cells by fluorescence” value was “not detectable by immunofluorescence”. Also, under “fluorescein-labeled peptide”, the “internalization by endocytosis (co-localization with EE1A label)” value was “not triggered”.

Source of the values: patent publication US7531622B2, “Synthesis and characterization of novel systems for guidance and vectorization of molecules of therapeutic interest towards target cells” (Centre National de la Recherche Scientifique- CNRS, priority 2002, dated 2009).
